# Laboratory results: patent US9763444B2, “Compositions and methods for repelling blood-sucking and biting insects, ticks and mites” (The United States of America, as represented by the …, priority 2013, dated 2017)
# Assays:
# An. albimanus = assay: Minimum Effective Dosage (MED) test on treated cloth, mosquito repellency; type: in vivo, Anopheles albimanus; conditions: Table 4, highest concentration 1.500 mg/cm^2; for An. albimanus Minimum Effective Dosage, M4: subject M4; for An. albimanus Minimum Effective Dosage, M5: subject M5; for An. albimanus Minimum Effective Dosage, M8: subject M8; for An. albimanus Minimum Effective Dosage, M9: subject M9; for An. albimanus Minimum Effective Dosage, M10: subject M10
# Ae. aegypti = assay: as above; type: in vivo, Aedes aegypti; conditions: for mosquito repellent activity against Ae. aegypti (in words): MED test on treated cloth; for Ae. aegypti Minimum Effective Dosage, M9: human subject M9; for Ae. aegypti Minimum Effective Dosage, M10: human subject M10; for Ae. aegypti Minimum Effective Dosage, Average: mean of 3 volunteers; for Ae. aegypti Minimum Effective Dosage, F1: human subject F1; for Ae. aegypti Minimum Effective Dosage, M1: human subject M1; for Ae. aegypti Minimum Effective Dosage, M2: human subject M2
# Description: Bioassay for mosquito repellent activity: Repellency screening test for experimental chemicals were carried out to identify candidates that might be useful repellents. The repellent efficacy was compared to that of the standard repellent, DEET. Experimental compounds were assessed in one of two ways: (1) a range of concentration was evaluated to determine the minimum effective dosage (MED) which was the concentration threshold of where the repellent began to fail and allowed bites, or (2) a predetermined concentration of each repellent was applied to cloth and the activity was evaluated over several days (or in some cases months) (Katritzky, A. R., et al., Proc. Nat. Acad. Sci. (US), 105, 7359-7364 (2008); Katritzky, A. R., et al., Journal of Med. Entomol., 47: 924-938 (2010)). When conducting assays for repellency, a failure point was also predetermined for those measurements. Since experiments described herein used about 500 female mosquitoes per test, the failure point was set at 1% (equal to 5 bites) received during a test interval. From 3 to 5 volunteers participated in the screening of each set of chemicals.
# Minimum Effective Dosage (MED) Test: The MED bioassays on treated cloth were a method of screening to determine the minimum amount of a repellent needed to prevent bites. Experimental compounds were prepared in solution by combining 0.15 g of experimental chemical with 2 mL of acetone in a 7.1 mL screwtop glass vial. This solution was then serially diluted to obtain nine concentrations when applied on to the cloth patch: 1.5, 0.75, 0.375, 0.187, 0.094, 0.047, 0.023, 0.011, and 0.006 mg/cm^2. The standard N,N-diethyl-3-methylbenzamide (DEET) was also tested at the same concentration levels to serve as a control and a comparison for relative repellency. A 50 cm^2 (5 cm×10 cm) patch of muslin cloth was rolled lengthwise and placed into each of the glass vials and scaled with a screwtop so it soaked up the solution. Just prior to the experiment, the pieces of treated cloth were removed from the vials, affixed to card stock tabs (5 cm×3 cm) with staples, and hung with masking tape on a rack to dry and allow acetone to evaporate. Volunteers wore a latex glove over their hands, a nylon stocking over their arm, and then wrapped a plastic Velcro-sealed sleeve over their entire forearm with a 32 cm^2 (4 cm×8 cm) window cut-out to allow mosquitoes to bite through. The nylon stocking acted as a barrier between the dried cloth and the skin, an additional precaution with experimental compounds. Dried cloth patches were stretched across the window in the plastic sleeve and held in place with masking tape. Volunteers placed their sleeve-covered arms into a screened cage for a one minute period with approximately 500 female Ae. aegypti mosquitoes that had been preselected for host-seeking behavior using a draw box (Posey, K. H., and C. E. Schreck, Mosquito News, 41: 566-568 (1981)). […] The MED recorded was the lowest passing concentration level tested for the experimental compound. […] All human volunteers in the study provided informed consent to participate of a protocol approved by the University of Florida Human Use Institutional Review Board (IRB #636-2005).
# [1] = Table 1 preliminary assay, human subject M4, highest concentration 1.500 mg/cm^2
# [2] = Table 1 preliminary assay, human subject M5, highest concentration 1.500 mg/cm^2
# [3] = Table 1 preliminary assay, human subject M8, highest concentration 1.500 mg/cm^2
# [4] = Table 1 preliminary assay, highest concentration 1.500 mg/cm^2
# [5] = Table 5, subject M4, highest dose 0.375 mg/cm2 (0.187 for 7)
# [6] = Table 5, subject M5, highest dose 0.375 mg/cm2 (0.187 for 7)
# [7] = Table 5, subject M8, highest dose 0.375 mg/cm2 (0.187 for 7)
# [8] = Table 2, highest concentration 1.500 mg/cm^2
smiles,measurement,setting,value
COc1ccc(CO)c2c1C=CC(C)(C)O2 [Compound 4],"An. albimanus Minimum Effective Dosage, M4",An. albimanus,>1.500 mg/cm^2
same,"An. albimanus Minimum Effective Dosage, M5",An. albimanus,>1.500 mg/cm^2
same,"An. albimanus Minimum Effective Dosage, M8",An. albimanus,>1.500 mg/cm^2
same,"An. albimanus Minimum Effective Dosage, M9",An. albimanus,0.750 mg/cm^2
same,"An. albimanus Minimum Effective Dosage, M10",An. albimanus,>1.500 mg/cm^2
same,mosquito repellent activity against Ae. aegypti (in words),Ae. aegypti,mixed results
same,"Ae. aegypti Minimum Effective Dosage, M4",Ae. aegypti; [1],>1.500 mg/cm^2
same,"Ae. aegypti Minimum Effective Dosage, M5",Ae. aegypti; [2],0.375 mg/cm^2
same,"Ae. aegypti Minimum Effective Dosage, M8",Ae. aegypti; [3],0.375 mg/cm^2
same,"Ae. aegypti Minimum Effective Dosage, M9",Ae. aegypti; [4],0.750 mg/cm^2
same,"Ae. aegypti Minimum Effective Dosage, M10",Ae. aegypti; [4],>1.500 mg/cm^2
"COCc1cccc2c1C=CC(C)(C)O2 [Compound 18, 5-(methoxymethyl)-2,2-dimethyl-2H-chromene]",mosquito repellent activity against Ae. aegypti (in words),Ae. aegypti,diminished repellent activity
same,"Ae. aegypti Minimum Effective Dosage, Average",Ae. aegypti; Table 5,0.094 mg/cm^2
same,"Ae. aegypti Minimum Effective Dosage, M4",Ae. aegypti; [5],0.047 mg/cm^2
same,"Ae. aegypti Minimum Effective Dosage, M5",Ae. aegypti; [6],0.047 mg/cm^2
same,"Ae. aegypti Minimum Effective Dosage, M8",Ae. aegypti; [7],0.187 mg/cm^2
COC(=O)c1ccc2c(c1)C=CC(C)(C)O2 [Compound 5],"An. albimanus Minimum Effective Dosage, M4",An. albimanus,0.187 mg/cm^2
same,"An. albimanus Minimum Effective Dosage, M5",An. albimanus,0.375 mg/cm^2
same,"An. albimanus Minimum Effective Dosage, M8",An. albimanus,>1.500 mg/cm^2
same,"An. albimanus Minimum Effective Dosage, M9",An. albimanus,0.187 mg/cm^2
same,"An. albimanus Minimum Effective Dosage, M10",An. albimanus,0.750 mg/cm^2
same,mosquito repellent activity against Ae. aegypti (in words),Ae. aegypti,mixed results
same,"Ae. aegypti Minimum Effective Dosage, M4",Ae. aegypti; [1],>1.500 mg/cm^2
same,"Ae. aegypti Minimum Effective Dosage, M5",Ae. aegypti; [2],0.375 mg/cm^2
same,"Ae. aegypti Minimum Effective Dosage, M8",Ae. aegypti; [3],0.187 mg/cm^2
same,"Ae. aegypti Minimum Effective Dosage, M9",Ae. aegypti; [4],0.375 mg/cm^2
same,"Ae. aegypti Minimum Effective Dosage, M10",Ae. aegypti; [4],>1.500 mg/cm^2
COC(=O)c1cccc2c1C=CC(C)(C)O2 [Compound 6],mosquito repellent activity against Ae. aegypti (in words),Ae. aegypti,ineffective at the highest dosage tested
same,"Ae. aegypti Minimum Effective Dosage, M4",Ae. aegypti; [5],>0.375 mg/cm^2
same,"Ae. aegypti Minimum Effective Dosage, M5",Ae. aegypti; [6],>0.375 mg/cm^2
same,"Ae. aegypti Minimum Effective Dosage, M8",Ae. aegypti; [7],>0.375 mg/cm^2
"COCCc1ccc2c(c1)C=CC(C)(C)O2 [Compound 19, 6-(2-methoxyethyl)-2,2-dimethyl-2H-chromene]",mosquito repellent activity against Ae. aegypti (in words),Ae. aegypti,did not show any improvement of activity
same,"Ae. aegypti Minimum Effective Dosage, M4",Ae. aegypti; [5],>0.375 mg/cm^2
same,"Ae. aegypti Minimum Effective Dosage, M5",Ae. aegypti; [6],>0.375 mg/cm^2
same,"Ae. aegypti Minimum Effective Dosage, M8",Ae. aegypti; [7],>0.375 mg/cm^2
COC(=O)Cc1ccc2c(c1)C=CC(C)(C)O2 [Compound 10],"Ae. aegypti Minimum Effective Dosage, F1",Ae. aegypti; [8],0.375 mg/cm^2
same,"Ae. aegypti Minimum Effective Dosage, M1",Ae. aegypti; [8],0.750 mg/cm^2
same,"Ae. aegypti Minimum Effective Dosage, M2",Ae. aegypti; [8],0.375 mg/cm^2
same,"Ae. aegypti Minimum Effective Dosage, Average",Ae. aegypti; Table 2,0.500 mg/cm^2
same,"Ae. aegypti Minimum Effective Dosage, M4",Ae. aegypti; [5],>0.375 mg/cm^2
same,"Ae. aegypti Minimum Effective Dosage, M5",Ae. aegypti; [6],>0.375 mg/cm^2
same,"Ae. aegypti Minimum Effective Dosage, M8",Ae. aegypti; [7],>0.375 mg/cm^2
CC1(C)C=Cc2cccc(Cl)c2O1 [Compound 15],"Ae. aegypti Minimum Effective Dosage, F1",Ae. aegypti; [8],0.094 mg/cm^2
same,"Ae. aegypti Minimum Effective Dosage, M1",Ae. aegypti; [8],0.094 mg/cm^2
same,"Ae. aegypti Minimum Effective Dosage, M2",Ae. aegypti; [8],0.187 mg/cm^2
same,"Ae. aegypti Minimum Effective Dosage, Average",Ae. aegypti; Table 2,0.125 mg/cm^2
